From US20240122926A1, “APELIN RECEPTOR MODULATORS FOR TREATING MUSCLE CONDITIONS” (priority 2022, published 2024)
Read-outs that look alike come from different tables or passages of the source.

Key:
[1] = system: 24-month-old C57BL/6 mice; assay: Activity monitoring wheel test in aged mice (frailty study); format: in vivo, mouse; conditions: 275 ug/mL in drinking water; both experiments; average
Procedure: The animals were housed with access to voluntary running wheels that wirelessly transmit running data to a computer for analysis. Voluntary running wheel activity levels were measured daily, and body weights were measured every 2 weeks.
The study concluded on Study Day 83. Activity wheel monitoring started on Study Day 1 and ended on Study Day 83 (Phase Day 64). The data was analyzed at the end of the study. […] For the frailty portion of the study, mice were assessed using an activity monitoring wheel which was monitored passively with a computer monitoring system.
BGE-105 was administered in drinking water consumed ad libitum. The compound is mildly acidic when dissolved, resulting in a pH 4.5 solution. The deionized water was adjusted to pH 8.5 by adding 1N NaOH. […]
The activity-monitoring wheel is a running disk that monitors rotations. […] Activity was monitored passively and wirelessly with a computer monitoring system. Running wheel activity levels were monitored daily. […] Mouse activity levels were measured as the number of wheel revolutions per day for each mouse and converted into a daily count of kilometers run using the diameter of the wheel. Within each experimental group, the daily median value for activity was calculated. […] The daily differences between the distances run in each group were calculated and tested for an increasing trend using Kendall's rank correlation tau.

[2] = 14-day IV study in rat (toxicology exposure); format: in vivo
Procedure: (§1) The updated exposure margins considering the highest maximum exposures in rats and dogs are calculated as follows: maximum exposure in the rat (male) was in the 14-day IV study and at the 300 mg/kg dose, the AUClast is 1070 μg*hr/mL; maximum exposure in dogs occurred at the 300 mg/kg dose in the 9-month oral toxicity study and the AUClast is 1310*μg·hr/mL.

[3] = system: fast and slow skeletal muscle; assay: snRNAseq of vastus lateralis muscle biopsies from Phase 1b study; format: in vivo, human
Description: FIG. 40 illustrates nuclei isolation for 10× Genomics single cell transcriptome gene expression technology used to assess tissue samples. […] Tissue samples were collected from patients and processed in a laboratory. Tissues were dissociated and cleaned up. The debris were removed and the sample (e.g., nuclei) was washed, resuspended for multiple cycles according to routine tissue processing procedures. Cell nuclei were visualized and counted using standard transcriptome gene expression technologies 10× Genomics single cell library technology is used for assessing tissue samples.
Cell type clustered include fast skeletal muscle, slow skeletal muscle (type 1), myofibroblast, tenocytes, fibroblasts, muscle stem cells, pericytes, smooth muscle, endothelial cells, T/NK cells, and adipocytes. Two methods and two annotations were used.

[4] = 9-month oral toxicity study in dogs; format: in vivo, dog
Procedure: as §1

mouse APLNR = molecular target: T1, mouse APLNR (Mus musculus, UniProt Q9WV08); assay: PathHunter β-arrestin eXpress GPCR assay, CHO cells stably expressing mouse APLNR; format: cell-based; conditions: for Emax: CHO
T1 construct: host or cells: CHO cells
T1 sequence (Q9WV08 1-377): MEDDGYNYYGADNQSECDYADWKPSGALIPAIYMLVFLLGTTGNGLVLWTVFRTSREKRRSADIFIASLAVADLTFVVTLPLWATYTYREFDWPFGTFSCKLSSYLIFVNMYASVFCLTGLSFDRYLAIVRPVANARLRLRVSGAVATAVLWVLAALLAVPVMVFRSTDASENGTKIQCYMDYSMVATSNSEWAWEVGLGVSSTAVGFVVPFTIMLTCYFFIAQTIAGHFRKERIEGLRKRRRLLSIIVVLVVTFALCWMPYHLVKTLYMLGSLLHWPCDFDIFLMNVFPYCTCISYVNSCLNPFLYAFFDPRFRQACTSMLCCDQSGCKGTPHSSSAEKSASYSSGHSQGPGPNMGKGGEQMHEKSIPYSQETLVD
Procedure: APLNR activation was determined by β-arrestin recruitment as measured by the ProLink […] complementation technology (93-0001, DiscoveRx). In brief, CHO cells stably expressing APLNR were seeded and incubated overnight at 37° C. The compounds were tested in duplicate and diluted to obtain a 10-point curve with 3-fold serial dilutions (<1% DMSO). The compounds and cells were incubated for 3 hours at 37° C. After the incubation period the detection reagents were added and the plate chemiluminescent signal was measured after 30 min at RT.

COc1cccc(OC)c1-n1c(NS(=O)(=O)[C@@H](C)[C@H](C)c2ncc(C)cn2)nnc1-c1cncc(C)c1 [BGE-105, (2S,3R)—N-(4-(2,6-dimethoxyphenyl)-5-(5-methyl-3-pyridinyl)-4H-1,2,4-triazol-3-yl)-3-(5-methyl-2-pyrimidinyl)-2-butanesulfonamide]
distance run more than vehicle-treated mice at end of experimental period [1]: at least 1 km/day
predicted human exposure margin Human:Rat ([2]; 240 mg loading dose + 1440 mg IV for 22 hours, 1036/1070): 0.97
AUC(0-t) ([2]; in vivo, rat (male), 14-day IV study, 300 mg/kg, read-out: AUClast, maximum exposure): 1070 µg·h/mL
NOAEL ([2]; rat): maximum dose tested
number of muscle proteins (out of 18) statistically highly expressed in fast skeletal muscle ([3]; treated compared to placebo): 15
differentially expressed genes associated with treatment, fast skeletal muscle ([3]; vastus lateralis biopsies): 3418
differentially expressed genes associated with treatment, slow skeletal muscle (Type 1) ([3]; vastus lateralis biopsies): 1571
predicted human exposure margin Human:Dog ([4]; 240 mg loading dose + 1440 mg IV for 22 hours, 1036/1310): 0.79
NOAEL ([4]; dog): maximum dose tested
AUC(0-t) ([4]; dog, in vivo, dogs, 9-month oral toxicity study, 300 mg/kg, read-out: AUClast, maximum exposure): 1310 µg·h/mL
EC50 (mouse APLNR): 0.8 nM
Emax (mouse APLNR; read-out: maximum effect (Emax)): 65%
Emax (mouse APLNR; read-out: maximum effect (Emax), replication): 60%
